# According to US4104384A, “1-(2'-Aroyl eth-1'yl) 2-(4"-acetamido piperazine-1"yl methyl) benzimidazoles and their therapeutical applications” (priority 1975, dated 1978):
# Tests used:
# [1] = tested on: stress ulcers; assay: Anti-ulcerous properties: ulcerations in rat under stress for 7 hours, oral; type: in vivo; conditions: for inhibition in vivo at 7.7 mg/kg: 7.7 mg/kg/p.o.; for inhibition in vivo at 7.4 mg/kg: 7.4 mg/kg/p.o.; for inhibition in vivo at 20 mg/kg: 20 mg/kg/p.o.
# [2] = tested on: bronchoconstriction caused by acetylcholine; assay: Anticholinergic and antibronchoconstrictive: bronchoconstriction by intravenous acetylcholine, Konzett's method; type: in vivo; conditions: Cavia porcellus, guinea-pig, read-out: Percentage inhibition of the bronchoconstriction
# Excerpt: Injected intravenously or intraduodenally, the compounds of formula (I) are capable of opposing bronchoconstriction caused in a guinea-pig by intravenous injection of acetylcholine and evaluated by Konzett's method.
# [3] = tested on: gastric secretion; assay: Gastric antisecretory properties: gastric secretion after Shay ligature, intraduodenal; type: in vivo; conditions: rat, read-out: Reduction of volume of gastric secretion; for inhibition in vivo at 1.6 mg/kg: 1.6 mg/kg/i.d.; for inhibition in vivo at 1.5 mg/kg: 1.5 mg/kg/i.d.; for inhibition in vivo at 10 mg/kg: 10 mg/kg/i.d.
# Excerpt: Administered intraduodenally to a rat, the compounds of formula (I) are capable of reducing gastric secretion measured after Shay ligature.
# [4] = tested on: Shay's ulcer; assay: Anti-ulcerous properties: ulceration caused by ligature of the pylorus (Shay's ulcers), intraduodenal; type: in vivo; conditions: rat, read-out: Percentage reduction of Shay's ulcer; for inhibition in vivo at 10 mg/kg: 10 mg/kg/i.d.; for inhibition in vivo at 15.5 mg/kg: 15.5 mg/kg/i.d.; for inhibition in vivo at 14.8 mg/kg: 14.8 mg/kg/i.d.; for inhibition in vivo at 7.3 mg/kg: 7.3 mg/kg/i.d.
# Excerpt: Furthermore, the compounds of formula (I) administered intraduodenally reduce the ulceration area caused by ligature of the pylorus of a rat (Shay's ulcers).
# [5] = tested on: painful stretchings; assay: Analgesic: painful stretchings following intraperitoneal injection of acetic acid; type: in vivo; conditions: po, mouse, read-out: Percentage diminution painful stretchings; for inhibition in vivo at 40 mg/kg: 40 mg/kg/p.o.; for inhibition in vivo at 50 mg/kg: 50 mg/kg/p.o.
# Excerpt: The compounds of formula (I), administered orally to a mouse, are capable of reducing the number of painful stretchings following intraperitioneal injection of acetic acid.
# [6] = Acute toxicity, lethal dose 50; conditions: mouse, in vivo, po, read-out: Lethal dose 50 (mouse) / DL 50 (mouse) (converted)
# [7] = tested on: sub-plantar oedema; assay: Anti-inflammatory: sub-plantar oedema caused by carragenine; type: in vivo; conditions: po, rat, read-out: Percentage reduction of sub-plantar oedema; for inhibition in vivo at 50 mg/kg: 50 mg/kg/p.o.
# [8] = tested on: jejunal ansa of a rabbit; assay: Spasmolytic in vivo: contractions of the jejunal ansa caused by electric stimulation
# Excerpt: The compounds of formula (I), administered intraduodenally are capable of reducing the contractions of the jejunal ansa of a rabbit, caused by electric stimulation.
# [9] = po, read-out: Percentage reduction of stress ulcers
smiles,measurement,setting,value
"O=C(CCn1c(CN2CCN(CC(=O)N3CCCC3)CC2)nc2ccccc21)c1ccccc1 [73 0458, 1-(2'-benzoyleth-1' yl) 2-(4""-pyrrolidinocarbonylmethylpiperazine-1"" ylmethyl) benzimidazole]",inhibition in vivo at 5 mg/kg,"[1]; po, 5 mg/kg/p.o., read-out: Percentage reduction of stress ulcers",77%
same,inhibition in vivo at 100 mg/kg,"[2]; intraduodenal, i.d., 100 mg/kg",67%
same,inhibition in vivo at 2 mg/kg,"[3]; Rat2, intraduodenal, 2 mg/kg/i.d.",19%
same,inhibition in vivo at 10 mg/kg,[4],90%
CCNC(=O)CN1CCN(Cc2nc3ccccc3n2CCC(=O)c2ccccc2)CC1 [74 0144],inhibition in vivo at 40 mg/kg,[5],92%
same,inhibition in vivo at 7.7 mg/kg,[1]; [9],99%
same,LD50,[6],310 mg/kg
same,inhibition in vivo at 4 mg/kg,"[2]; iv, i.v., 4 mg/kg",100%
same,inhibition in vivo at 1.6 mg/kg,[3]; intraduodenal,85%
same,inhibition in vivo at 30 mg/kg,[7]; 30 mg/kg/p.o.,35%
same,inhibition in vivo at 15.5 mg/kg,[4],98%
same,Diminution of contractions of the jejunum for more than an hour,[8]; 15.5 mg/kg/i.d.,43%
CNC(=O)CN1CCN(Cc2nc3ccccc3n2CCC(=O)c2ccccc2)CC1 [74 0145],inhibition in vivo at 10 mg/kg,[5]; 10 mg/kg/p.o.,70%
same,inhibition in vivo at 7.7 mg/kg,[1]; [9],100%
same,LD50,[6],180 mg/kg
same,inhibition in vivo at 0.5 mg/kg,"[2]; iv, i.v., 0.5 mg/kg",75%
same,inhibition in vivo at 1.6 mg/kg,[3]; intraduodenal,88%
same,inhibition in vivo at 10 mg/kg,[7]; 10 mg/kg/p.o.,40%
same,inhibition in vivo at 15.5 mg/kg,[4],100%
CCCNC(=O)CN1CCN(Cc2nc3ccccc3n2CCC(=O)c2ccccc2)CC1 [74 0159],inhibition in vivo at 50 mg/kg,[5],40%
same,inhibition in vivo at 7.5 mg/kg,"[1]; po, 7.5 mg/kg/p.o., read-out: Percentage reduction of stress ulcers",100%
same,inhibition in vivo at 7.6 mg/kg,"[1]; po, 7.6 mg/kg/p.o., read-out: Percentage reduction of stress ulcers",100%
same,LD50,[6],1250 mg/kg
same,inhibition in vivo at 5 mg/kg,"[2]; iv, i.v.",100%
same,inhibition in vivo at 1.5 mg/kg,[3]; intraduodenal,77%
same,inhibition in vivo at 50 mg/kg,[7],57%
same,inhibition in vivo at 15.1 mg/kg,[4]; 15.1 mg/kg/i.d.,100%
O=C(CCn1c(CN2CCN(CC(=O)N3CCOCC3)CC2)nc2ccccc21)c1ccccc1 [74 0160],inhibition in vivo at 6 mg/kg,"[1]; po, 6 mg/kg/p.o., read-out: Percentage reduction of stress ulcers",76%
same,LD50,[6],1700 mg/kg
same,inhibition in vivo at 1.5 mg/kg,[3]; intraduodenal,45%
same,inhibition in vivo at 50 mg/kg,[7],50%
same,inhibition in vivo at 15 mg/kg,[4]; 15 mg/kg/i.d.,99%
CN(C)C(=O)CN1CCN(Cc2nc3ccccc3n2CCC(=O)c2ccccc2)CC1 [74 0180],inhibition in vivo at 50 mg/kg,[5],53%
same,inhibition in vivo at 7.7 mg/kg,[1]; [9],100%
same,LD50,[6],716 mg/kg
same,inhibition in vivo at 5 mg/kg,"[2]; iv, i.v.",100%
same,inhibition in vivo at 1.5 mg/kg,[3]; intraduodenal,86%
same,inhibition in vivo at 50 mg/kg,[7],47%
same,inhibition in vivo at 7.7 mg/kg,[4]; 7.7 mg/kg/i.d.,94%
same,Diminution of contractions of the jejunum for more than an hour,[8]; 15.4 mg/kg/i.d.,50%
CCCCNC(=O)CN1CCN(Cc2nc3ccccc3n2CCC(=O)c2ccccc2)CC1 [74 0186],inhibition in vivo at 40 mg/kg,[5],77%
same,inhibition in vivo at 7.4 mg/kg,[1]; [9],98%
same,LD50,[6],360 mg/kg
same,inhibition in vivo at 2 mg/kg,"[2]; iv, i.v., 2 mg/kg",100%
same,inhibition in vivo at 1.5 mg/kg,[3]; intraduodenal,67%
same,inhibition in vivo at 40 mg/kg,[7]; 40 mg/kg/p.o.,48%
same,inhibition in vivo at 14.8 mg/kg,[4],75%
CC(C)CNC(=O)CN1CCN(Cc2nc3ccccc3n2CCC(=O)c2ccccc2)CC1 [74 0187],inhibition in vivo at 50 mg/kg,[5],42%
same,inhibition in vivo at 7.4 mg/kg,[1]; [9],100%
same,LD50,[6],1600 mg/kg
same,inhibition in vivo at 5 mg/kg,"[2]; iv, i.v.",100%
same,inhibition in vivo at 1.5 mg/kg,[3]; intraduodenal,78%
same,inhibition in vivo at 50 mg/kg,[7],47%
same,inhibition in vivo at 14.8 mg/kg,[4],94%
O=C(CCn1c(CN2CCN(CC(=O)N3CCCCCC3)CC2)nc2ccccc21)c1ccccc1 [74 0195],inhibition in vivo at 50 mg/kg,[5],53%
same,inhibition in vivo at 7.1 mg/kg,"[1]; po, 7.1 mg/kg/p.o., read-out: Percentage reduction of stress ulcers",59%
same,LD50,[6],> 2000 mg/kg
same,inhibition in vivo at 25 mg/kg,"[2]; intraduodenal, i.d., 25 mg/kg",60%
same,inhibition in vivo at 14.2 mg/kg,[4]; 14.2 mg/kg/i.d.,86%
same,Diminution of contractions of the jejunum of a rabbit,[8]; 14.2 mg/kg/i.d.,30%
CCCN(CCC)C(=O)CN1CCN(Cc2nc3ccccc3n2CCC(=O)c2ccccc2)CC1 [74 0196],inhibition in vivo at 7.3 mg/kg,"[1]; po, 7.3 mg/kg/p.o., read-out: Percentage reduction of stress ulcers",88%
same,LD50,[6],2100 mg/kg
same,inhibition in vivo at 1.5 mg/kg,[3]; intraduodenal,74%
same,inhibition in vivo at 7.3 mg/kg,[4],90%
CC(C)N(C(=O)CN1CCN(Cc2nc3ccccc3n2CCC(=O)c2ccccc2)CC1)C(C)C [74 0453],LD50,[6],1000 mg/kg
same,inhibition in vivo at 2.5 mg/kg,"[2]; iv, i.v., 2.5 mg/kg",100%
same,inhibition in vivo at 7.3 mg/kg,[4],82%
O=C(CN1CCN(Cc2nc3ccccc3n2CCC(=O)c2ccccc2)CC1)NC1CCCC1 [74 0751],ED50,"[1]; oral, read-out: DE 50, stress ulcers",11 mg/kg
same,LD50,[6],1100 mg/kg
same,inhibition in vivo at 4.5 mg/kg,"[3]; intraduodenal, 4.5 mg/kg/i.d.",69%
same,inhibition in vivo at 10 mg/kg,[4],89%
Cc1ccc(C(=O)CCn2c(CN3CCN(CC(=O)NC(C)C)CC3)nc3ccccc32)cc1 [75 0009],inhibition in vivo at 20 mg/kg,[1]; [9],90%
same,LD50,[6],1800 mg/kg
same,inhibition in vivo at 10 mg/kg,[3]; intraduodenal,62%
same,inhibition in vivo at 20 mg/kg,[4]; 20 mg/kg/i.d.,56%
COc1cccc(C(=O)CCn2c(CN3CCN(CC(=O)NC(C)C)CC3)nc3ccccc32)c1 [75 0010],inhibition in vivo at 20 mg/kg,[1]; [9],77%
same,LD50,[6],1200 mg/kg
same,inhibition in vivo at 25 mg/kg,"[3]; intraduodenal, 25 mg/kg/i.d.",82%
same,inhibition in vivo at 40 mg/kg,[4]; 40 mg/kg/i.d.,86%
CC(C)NC(=O)CN1CCN(Cc2nc3ccccc3n2CCC(=O)c2ccc(Cl)cc2)CC1 [75 0012],inhibition in vivo at 20 mg/kg,[1]; [9],64%
same,LD50,[6],1300 mg/kg
same,inhibition in vivo at 10 mg/kg,[3]; intraduodenal,63%
same,inhibition in vivo at 10 mg/kg,[4],73%
NC(=O)CN1CCN(Cc2nc3ccccc3n2CCC(=O)c2ccccc2)CC1 [75 0102],inhibition in vivo at 10 mg/kg,"[1]; po, 10 mg/kg/p.o., read-out: Percentage reduction of stress ulcers",100%
same,LD50,[6],1300 mg/kg
same,inhibition in vivo at 10 mg/kg,[3]; intraduodenal,91%
same,inhibition in vivo at 10 mg/kg,[4],74%
same,Diminution of contractions of the jejunum for more than an hour,[8]; 25 mg/kg/i.d.,80%
"C[N+]1(C)CCC(=C(c2ccccc2)c2ccccc2)CC1 [Diphemanil, diphemanil (methylsulfate), reference compound]",inhibition in vivo at 100 mg/kg,"[1]; po, 100 mg/kg/p.o., ratio equal to 315, read-out: Percentage reduction of stress ulcers",91%
same,LD50,[6],317 mg/kg
same,inhibition in vivo at 50 mg/kg,"[3]; intraduodenal, 50 mg/kg/i.d.",52%
same,Diminution of contractions of the jejunum of a rabbit,[8]; 20 mg/kg/i.d.,70%
